Test results reported in article PMC7239764 (The FEBS journal, 2019).
Values joined by “and” are separate entries in the source; they are usually repeats but may differ in a detail not shown here. Equal entries are not always repeated. Where two headings read alike, the source gives them in different places.

Key:
[1] = biological target: T1, BaPDH (prephenate dehydrogenase from Bacillus anthracis) (Bacillus anthracis, UniProt Q81P63); test: biochemical; type: binding
[2] = biological target: AaPDH (prephenate dehydrogenase from Aquifex aeolicus); settings: cited from earlier work
[3] = biological target: arogenate dehydrogenase from cyanobacteria Synechocystis sp.; settings: cited from earlier work
[4] = biological target: T1, BaPDH (prephenate dehydrogenase from Bacillus anthracis); test: biochemical; type: biochemical; settings: for Km: 25°C, pH 7.5
[5] = biological target: T1, BaPDH (prephenate dehydrogenase from Bacillus anthracis); type: binding

T1 sequence (Q81P63 1-378): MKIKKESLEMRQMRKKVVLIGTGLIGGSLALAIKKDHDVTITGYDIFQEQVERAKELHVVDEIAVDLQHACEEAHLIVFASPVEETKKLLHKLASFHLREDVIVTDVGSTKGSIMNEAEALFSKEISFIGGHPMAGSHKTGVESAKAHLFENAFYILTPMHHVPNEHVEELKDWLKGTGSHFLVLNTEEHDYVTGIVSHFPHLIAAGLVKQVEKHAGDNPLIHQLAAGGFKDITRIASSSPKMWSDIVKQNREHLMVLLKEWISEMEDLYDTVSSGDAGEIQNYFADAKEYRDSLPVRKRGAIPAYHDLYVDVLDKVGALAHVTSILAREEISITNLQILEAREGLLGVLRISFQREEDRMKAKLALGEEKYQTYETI

Compound	Binding sites per protein dimer (N) [1]	Tm [5]	Increase in Tm with the addition of the ligand(s) [5]	Km [4]	further results
N[C@@H](Cc1ccc(O)cc1)C(=O)O [Tyrosine, L-tyrosine]	1.002 ± 0.001 and 0.928 ± 0.003	51 ± 1 °C	–	–	Kd ([1]; Kd): 0.64 µM and 0.37 µM; Ki [2]: 15.9 ± 1.3 µM; Ki [3]: 70 µM; Ki [4]: 1.47 ± 0.07 µM; mode of inhibition [4]: non-competitive inhibition
NC(=O)c1ccc[n+]([C@@H]2O[C@H](COP(=O)([O-])OP(=O)(O)OC[C@H]3O[C@@H](n4cnc5c(N)ncnc54)[C@H](OP(=O)(O)O)[C@@H]3O)[C@@H](O)[C@H]2O)c1 [NADP^+]	–	41 ± 1 °C	do not significantly change and ns	–	Kd [1]: No detectable binding
O=C(O)C(=O)CC1(C(=O)O)C=CC(O)C=C1 (stereo not shown) [prephenate]	–	–	–	58 ± 9 µM	–
NC(=O)c1ccc[n+]([C@@H]2O[C@H](COP(=O)([O-])OP(=O)(O)OC[C@H]3O[C@@H](n4cnc5c(N)ncnc54)[C@H](O)[C@@H]3O)[C@@H](O)[C@H]2O)c1 [NAD^+]	0.90 ± 0.01	41 ± 1 °C	does not impart a significant change and ns	237 ± 44 µM	–
NC(=O)C1=CN([C@@H]2O[C@H](COP(=O)(O)OP(=O)(O)OC[C@H]3O[C@@H](n4cnc5c(N)ncnc54)[C@H](O)[C@@H]3O)[C@@H](O)[C@H]2O)C=CC1 [NADH]	–	43 ± 2 °C	do not significantly change and ns	–	–
NC(=O)C1=CN([C@@H]2O[C@H](COP(=O)(O)OP(=O)(O)OC[C@H]3O[C@@H](n4cnc5c(N)ncnc54)[C@H](OP(=O)(O)O)[C@@H]3O)[C@@H](O)[C@H]2O)C=CC1 [NADPH]	–	40 ± 1 °C	do not significantly change and ns	–	–
